# Measurements: patent US6383527B1, “Compositions comprising valerian extracts, isovaleric acid or derivatives thereof with a NSAID” (NPS Pharmaceuticals, Inc., priority 2001, dated 2002)
# Legend:
# [1] = tested on: recurrent excessive lower back pain; test: Case report Example 1: valerian preparation and ibuprofen for recurrent, excessive lower back pain; assay type: in vivo, human; settings: person; preparation taken by itself
# Description: These examples are provided for purposes of illustration and are not intended to be limiting of the invention. A person was complaining of recurrent excessive lower back pain from prior injuries. During a bout of lower back pain, they stated that […] could not sleep or sit comfortably and was in duress from the constant pain. […] It was stated that the ibuprofen would provide a decrease in inflammation and some analgesic therapy whereas the addition of the valerian and hops extract could provide a decrease in the muscle tone and analgesia as well, thereby allowing for relief from the pain. […] Their spouse stated that […] “acted like a new […]” because they were not grimacing and stooped from pain.
# [2] = acid- and heat-labile; release two moles of isovaleric acid per mole; cited from earlier work
# CNS = settings: in vivo; cited from earlier work
# [3] = clinical; cited from earlier work
# [4] = cited from earlier work
# [5] = tested on: excessive lower back pain; test: Case report Example 2: valerian preparation and ibuprofen for acute muscle strain from overexertion; assay type: in vivo, human; settings: person; ibuprofen taken alone
# Description: These examples are provided for purposes of illustration and are not intended to be limiting of the invention. A person, complained of excessive lower back pain that interfered with sleeping and the general activities of daily living such as sitting or standing. They had injured their back while shoveling deep snow from their driveway and sidewalk. They had been taking ibuprofen but experiencing little relief. […] They continued to take the combination until their back healed and no longer gave their pain without medication.
smiles,measurement,setting,value
CC(=O)Oc1ccccc1C(=O)O [aspirin],relief from lower back pain,[1],without any useful sense of relief
CC(=O)OCC1=CO[C@@H](OC(=O)CC(C)C)[C@H]2C1=C[C@H](OC(=O)CC(C)C)[C@]21CO1 [valtrate],survival in the stomach following oral administration,[2],do not survive intact
CC(=O)O[C@H]1C[C@@H]2C(COC(=O)CC(C)C)=CO[C@@H](OC(=O)CC(C)C)[C@@H]2[C@@]12CO2 [didrovaltrate],survival in the stomach following oral administration,[2],do not survive intact
CC(=O)Nc1ccc(O)cc1 [acetaminophen],relief from lower back pain,[1],without any useful sense of relief
"CCN(CC)C(=O)CC(C)C [N,N-Diethyl isovaleramide]",CNS properties,CNS,CNS stimulant (convulsant) properties
CC(C)CC(N)=O [isovaleramide],anxiolytic properties,[3],clinically useful anxiolytic properties
same,acute toxicity in vivo,[4],low acute toxicity
CC(C)Cc1ccc(C(C)C(=O)O)cc1 (stereo not drawn) [ibuprofen],relief from lower back pain,[5],little relief
same,relief from lower back pain,[1],without any useful sense of relief
